This is an account of results in patent US8436043B2 (Takeda Pharmaceutical Company Limited, priority 2008, dated 2013).

This experiment deals with T1, human glucagon receptor (Homo sapiens, UniProt P47871).
T1 construct: made in house; host or cells: FreeStyle CHO cells, transient transfection with pMSRαneo/hGCGR; membrane fraction (35,000 rpm pellet)
T1 sequence (P47871 26-477): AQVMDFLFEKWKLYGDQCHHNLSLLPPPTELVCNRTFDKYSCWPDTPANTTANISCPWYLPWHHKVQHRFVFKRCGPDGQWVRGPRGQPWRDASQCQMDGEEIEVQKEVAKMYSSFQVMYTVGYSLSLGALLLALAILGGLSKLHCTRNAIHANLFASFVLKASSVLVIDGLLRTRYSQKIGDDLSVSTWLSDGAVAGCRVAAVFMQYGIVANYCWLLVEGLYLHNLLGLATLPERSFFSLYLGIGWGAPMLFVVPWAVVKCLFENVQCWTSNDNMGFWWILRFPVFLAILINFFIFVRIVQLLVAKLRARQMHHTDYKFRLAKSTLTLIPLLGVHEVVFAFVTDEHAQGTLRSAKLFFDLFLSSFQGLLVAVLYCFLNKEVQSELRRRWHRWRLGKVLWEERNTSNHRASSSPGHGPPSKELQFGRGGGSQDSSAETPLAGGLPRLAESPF
Description: Glucagon binding inhibitory activity ([125I]-glucagon binding to glucagon receptor membrane protein). As to conditions: test compound 10 μM; 0.4% DMSO = 0%, non-labeled glucagon 1 μM = 100%; read-out: inhibitory rate (%) at 10 μM. The essentials: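 Receptor source was a membrane fraction of transiently transfected CHO cells bearing human receptor; 90 min room-temperature binding, filtration harvest, scintillation counting.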
Take `Cc1c(C(Nc2ccc(C(=O)N(C)CCC(=O)O)cc2)C2CCCCC2)oc2ccc(C#N)cc12` (stereo not drawn) [Example A99, 3-{[(4-{[(5-cyano-3-methyl-1-benzofuran-2-yl)(cyclohexyl)methyl]amino}phenyl)carbonyl](methyl)amino}-propanoic acid]: the inhibition at 10 µM is 80%.

As for `Cc1c(C(CC(C)C)Nc2ccc(C(=O)NCCC(=O)O)cc2)oc2ccc(Cl)cc12` (stereo not drawn) [Example A100, 3-{[(4-{[1-(5-chloro-3-methyl-1-benzofuran-2-yl)-3-methylbutyl]amino}phenyl)carbonyl]amino}propanoic acid], the inhibition at 10 µM is 78%.

For the compound `Cc1c(C(CC(C)C)Nc2ccc(C(=O)N(C)CCC(=O)O)cc2)oc2ccc(Cl)cc12` (stereo not drawn) [Example A101, 3-{[(4-{[1-(5-chloro-3-methyl-1-benzofuran-2-yl)-3-methylbutyl]amino}phenyl)carbonyl](methyl)amino}propanoic acid], the inhibition at 10 µM is 76%.

With `COc1ccc2oc(C(Nc3ccc(C(=O)NCCC(=O)O)cc3)C3CCCCC3)c(Br)c2c1` (stereo not drawn) [Example A102, 3-{[(4-{[(3-bromo-5-methoxy-1-benzofuran-2-yl)(cyclohexyl)methyl]amino}phenyl)carbonyl]amino}propanoic acid], the inhibition at 10 µM amounted to 68%.

As for `COc1ccc2oc(C(Nc3ccc(C(=O)N(C)CCC(=O)O)cc3)C3CCCCC3)c(Br)c2c1` (stereo not drawn) [Example A103, 3-{[(4-{[(3-bromo-5-methoxy-1-benzofuran-2-yl)(cyclohexyl)methyl]amino}phenyl)carbonyl](methyl)amino}-propanoic acid], the inhibition at 10 µM came out at 66%.

In the case of `CCC(CC)C(Nc1ccc(C(=O)NCCC(=O)O)cc1)c1oc2ccc(OC)cc2c1C` (stereo not drawn) [Example A104, 3-{[(4-{[2-ethyl-1-(5-methoxy-3-methyl-1-benzofuran-2-yl)butyl]amino}phenyl)carbonyl]amino}propanoic acid], the inhibition at 10 µM amounted to 68%.

Turning to `CCC(CC)C(Nc1ccc(C(=O)N(C)CCC(=O)O)cc1)c1oc2ccc(OC)cc2c1C` (stereo not drawn) [Example A105, 3-{[(4-{[2-ethyl-1-(5-methoxy-3-methyl-1-benzofuran-2-yl)butyl]amino}phenyl)carbonyl](methyl)amino}propanoic acid], the inhibition at 10 µM amounted to 67%.

Regarding `CCCCCCC(Nc1ccc(C(=O)NCCC(=O)O)cc1)c1cc2cc(Cl)ccc2n1-c1cccc(C(F)(F)F)c1` (stereo not drawn) [Example A106, 3-[({4-[(1-{5-chloro-1-[3-(trifluoromethyl)phenyl]-1H-indol-2-yl}heptyl)amino]phenyl}carbonyl)amino]propanoic acid], the inhibition at 10 µM was 69%.

In the case of `CCCCCCC(Nc1ccc(C(=O)N(C)CCC(=O)O)cc1)c1cc2cc(Cl)ccc2n1-c1cccc(C(F)(F)F)c1` (stereo not drawn) [Example A107, 3-[({4-[(1-{5-chloro-1-[3-(trifluoromethyl)phenyl]-1H-indol-2-yl}heptyl)amino]phenyl}carbonyl)(methyl)amino]propanoic acid], the inhibition at 10 µM turned out to be 74%.

Regarding `COc1ccc2oc(C(Nc3ccc(C(=O)NCCC(=O)O)cc3)C3CCCCC3)c(C#N)c2c1` (stereo not drawn) [Example A108, 3-{[(4-{[(3-cyano-5-methoxy-1-benzofuran-2-yl)(cyclohexyl)methyl]amino}phenyl)carbonyl]amino}propanoic acid], the inhibition at 10 µM was 58%.

On to `COc1ccc2oc(C(Nc3ccc(C(=O)N(C)CCC(=O)O)cc3)C3CCCCC3)c(C#N)c2c1` (stereo not drawn) [Example A109, 3-{[(4-{[(3-cyano-5-methoxy-1-benzofuran-2-yl)(cyclohexyl)methyl]amino}phenyl)carbonyl](methyl)amino}-propanoic acid], for which the inhibition at 10 µM came out at 58%.

Consider `Cc1c(C(Nc2ccc(C(=O)N(C)CCC(=O)O)cc2)C2CCCCC2)oc2ccc(NS(C)(=O)=O)cc12` (stereo not drawn) [Example A111, 3-[({4-[(cyclohexyl{3-methyl-5-[(methylsulfonyl)amino]-1-benzofuran-2-yl}methyl)amino]phenyl}carbonyl)(methyl)amino]propanoic acid], for which the inhibition at 10 µM is 70%.
